The structures appear in SMILES notation.

For orientation: IC50 means the midpoint of a concentration-inhibition curve. A high value points to a need for much substance. By Ki is commonly meant the equilibrium dissociation constant of an inhibitor or competing ligand from its target.

The target in one assay is Tumor necrosis factor (Homo sapiens, UniProt P01375). The experiment in a line: Inhibitory activity against tumor necrosis factor alpha (TNF-alpha) production in LPS-stimulated human PBMCs. The format is functional.
The target in another assay is T1, Interstitial collagenase (Homo sapiens, UniProt P03956).
T1 sequence (P03956 whole entry): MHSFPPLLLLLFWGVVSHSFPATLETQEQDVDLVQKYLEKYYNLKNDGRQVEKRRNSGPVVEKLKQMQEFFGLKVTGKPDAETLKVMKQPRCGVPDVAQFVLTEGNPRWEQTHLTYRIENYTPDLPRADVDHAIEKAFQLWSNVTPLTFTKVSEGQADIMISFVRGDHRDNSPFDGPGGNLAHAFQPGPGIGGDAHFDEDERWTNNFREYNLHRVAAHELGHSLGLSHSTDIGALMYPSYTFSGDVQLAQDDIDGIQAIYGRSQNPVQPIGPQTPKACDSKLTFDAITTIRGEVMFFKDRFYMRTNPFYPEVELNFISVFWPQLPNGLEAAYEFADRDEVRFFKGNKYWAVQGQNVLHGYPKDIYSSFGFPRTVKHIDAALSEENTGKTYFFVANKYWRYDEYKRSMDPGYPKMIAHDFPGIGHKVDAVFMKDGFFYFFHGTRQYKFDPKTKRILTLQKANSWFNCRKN
Description: Inhibitory potency against Matrix metalloprotease-1 (MMP-1).

Assay [1] addresses Disintegrin and metalloproteinase domain-containing protein 17 (Homo sapiens, UniProt P78536). The experiment in a line: Inhibitory potency against Tumor necrosis factor alpha converting enzyme (TACE).
Assay [2] deals with 72 kDa type IV collagenase (Homo sapiens, UniProt P08253). The experiment in a line: Inhibitory potency against Matrix metalloprotease-2 (MMP-2).
In another assay the target is Stromelysin-1 (Homo sapiens, UniProt P08254). Description: Inhibitory potency against Matrix metalloprotease-3 (MMP-3).
Sequence of Stromelysin-1 (P08254 whole entry): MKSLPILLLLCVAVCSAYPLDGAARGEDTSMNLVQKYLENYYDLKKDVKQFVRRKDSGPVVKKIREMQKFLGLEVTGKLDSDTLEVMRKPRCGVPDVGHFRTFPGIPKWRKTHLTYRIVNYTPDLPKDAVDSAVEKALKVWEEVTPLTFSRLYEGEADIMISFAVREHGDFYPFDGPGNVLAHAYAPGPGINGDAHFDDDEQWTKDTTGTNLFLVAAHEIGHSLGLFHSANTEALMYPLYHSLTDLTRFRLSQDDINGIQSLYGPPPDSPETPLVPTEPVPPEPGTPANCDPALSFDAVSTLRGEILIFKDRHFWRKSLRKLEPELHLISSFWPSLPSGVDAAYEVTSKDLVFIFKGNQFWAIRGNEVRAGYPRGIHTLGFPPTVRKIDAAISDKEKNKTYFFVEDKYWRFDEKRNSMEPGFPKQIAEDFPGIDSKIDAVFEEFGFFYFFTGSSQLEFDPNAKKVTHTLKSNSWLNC

Sequence of Disintegrin and metalloproteinase domain-containing protein 17 (P78536 whole entry, the tested form may be a part): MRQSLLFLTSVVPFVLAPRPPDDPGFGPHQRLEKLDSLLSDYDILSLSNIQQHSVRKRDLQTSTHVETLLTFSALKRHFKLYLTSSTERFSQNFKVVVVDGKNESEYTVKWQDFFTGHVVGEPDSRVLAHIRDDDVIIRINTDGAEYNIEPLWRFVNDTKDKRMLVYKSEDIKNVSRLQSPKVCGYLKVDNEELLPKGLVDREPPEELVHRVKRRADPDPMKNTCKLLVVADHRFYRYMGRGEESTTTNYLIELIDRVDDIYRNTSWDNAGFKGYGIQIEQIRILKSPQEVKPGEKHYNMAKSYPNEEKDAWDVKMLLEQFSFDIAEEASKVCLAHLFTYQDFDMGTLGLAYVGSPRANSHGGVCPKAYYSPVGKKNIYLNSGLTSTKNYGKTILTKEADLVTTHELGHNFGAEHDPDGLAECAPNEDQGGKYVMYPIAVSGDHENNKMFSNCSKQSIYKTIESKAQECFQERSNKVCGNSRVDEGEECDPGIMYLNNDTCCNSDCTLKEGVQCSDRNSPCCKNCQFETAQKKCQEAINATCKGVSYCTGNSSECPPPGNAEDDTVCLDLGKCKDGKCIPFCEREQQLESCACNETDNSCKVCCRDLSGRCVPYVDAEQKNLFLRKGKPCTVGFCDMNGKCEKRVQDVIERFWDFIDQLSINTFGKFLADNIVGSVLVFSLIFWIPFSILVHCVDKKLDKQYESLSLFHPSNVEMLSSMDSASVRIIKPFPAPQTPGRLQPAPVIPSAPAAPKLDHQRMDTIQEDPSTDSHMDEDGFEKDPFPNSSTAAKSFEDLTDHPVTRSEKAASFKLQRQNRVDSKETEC
Sequence of Tumor necrosis factor (P01375 whole entry): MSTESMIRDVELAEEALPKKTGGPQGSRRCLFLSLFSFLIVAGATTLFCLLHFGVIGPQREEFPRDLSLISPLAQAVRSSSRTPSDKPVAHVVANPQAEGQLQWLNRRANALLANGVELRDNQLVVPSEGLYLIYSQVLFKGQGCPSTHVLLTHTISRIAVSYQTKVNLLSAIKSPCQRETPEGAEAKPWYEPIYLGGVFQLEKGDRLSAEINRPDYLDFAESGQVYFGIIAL
Sequence of 72 kDa type IV collagenase (P08253 whole entry): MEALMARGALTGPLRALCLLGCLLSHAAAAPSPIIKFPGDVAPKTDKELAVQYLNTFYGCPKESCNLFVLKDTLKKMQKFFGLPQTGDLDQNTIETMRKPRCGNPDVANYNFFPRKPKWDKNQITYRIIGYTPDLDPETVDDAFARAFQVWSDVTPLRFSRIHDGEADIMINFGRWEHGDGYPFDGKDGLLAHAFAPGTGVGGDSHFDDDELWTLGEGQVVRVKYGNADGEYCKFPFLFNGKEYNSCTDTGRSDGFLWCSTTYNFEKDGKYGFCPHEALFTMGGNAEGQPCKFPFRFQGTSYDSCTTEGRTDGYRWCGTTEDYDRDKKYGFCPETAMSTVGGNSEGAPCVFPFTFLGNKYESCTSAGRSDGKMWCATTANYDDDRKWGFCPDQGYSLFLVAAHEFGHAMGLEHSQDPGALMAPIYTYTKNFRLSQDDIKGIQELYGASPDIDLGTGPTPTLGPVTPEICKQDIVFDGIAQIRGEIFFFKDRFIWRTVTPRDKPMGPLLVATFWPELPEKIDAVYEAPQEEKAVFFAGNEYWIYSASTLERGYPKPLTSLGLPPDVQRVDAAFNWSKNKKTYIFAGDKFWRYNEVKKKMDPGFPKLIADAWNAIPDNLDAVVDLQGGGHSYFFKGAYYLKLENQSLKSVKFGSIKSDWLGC

As for `CNC(=O)[C@@H](NC(=O)[C@H](CC(C)C)[C@H](O)C(=O)NO)C(C)(C)C`, the IC50 against Tumor necrosis factor worked out at 1000 nM.

`CNC(=O)[C@@H](NC(=O)[C@H](CC(C)C)[C@H](CO)C(=O)NO)C(C)(C)C`: the inhibition constant (Ki) on Interstitial collagenase was 0.6 nM; in assay [1] it was 12.9 nM; in assay [2] it was 0.3 nM; at Stromelysin-1 it was 9.8 nM. On Tumor necrosis factor, this compound registered an IC50 of 1610 nM.

On to `CNC(=O)[C@@H](NC(=O)[C@H](c1ccc(OC)cc1)[C@H](CO)C(=O)NO)C(C)(C)C`, for which the Ki at Interstitial collagenase was found to be 1.1 nM; in assay [1], 0.6 nM; in assay [2], 0.5 nM; at Stromelysin-1, 0.9 nM. Besides, 48 nM corresponded to half-maximal inhibition on Tumor necrosis factor (IC50).

`CNC(=O)[C@@H](NC(=O)[C@H](c1ccccc1)[C@H](CO)C(=O)NO)C(C)(C)C`: the inhibitory constant (Ki) at Interstitial collagenase is 3.5 nM; in assay [1], 4.9 nM; in assay [2] it was 4.8 nM; at Stromelysin-1 it was 13.2 nM. The compound also registered a half-maximal inhibitory concentration (IC50) at Tumor necrosis factor of 928 nM.

With `CNC(=O)[C@@H](NC(=O)[C@H](c1ccc(C)cc1)[C@H](CO)C(=O)NO)C(C)(C)C`, the inhibitory constant (Ki) at Interstitial collagenase stood at 2 nM; in assay [1] it was 3.8 nM; in assay [2] it was 0.3 nM; at Stromelysin-1 it was 15.2 nM. This compound yielded a 50% inhibitory concentration (IC50) on Tumor necrosis factor of 269 nM.

(Values after ChEMBL document CHEMBL1135424, “Beta-aryl-succinic acid hydroxamates as dual inhibitors of matrix metalloproteinases and tumor necrosis factor alpha converting enzyme” (J Med Chem, 2002).)
